The source of these data is ChEMBL document CHEMBL3994649, “Piceatannol, a natural trans-stilbene compound, inhibits human glyoxalase I” (Bioorg Med Chem Lett, 2017).

Molecules are shown by their SMILES. The source made the active and inactive calls. The calls are words filed in the database; no cut-off is given here.

For experiment [1], the system named is NCI-H460. Put plainly: Antiproliferative activity against human NCI-H460 cells at 50 uM after 24 to 72 hrs by WST8 assay. It is filed as functional, cell-based. (In general: Tetrazolium assays rely on reduction of a dye to a coloured formazan, in cell work by metabolically active cells.)
For experiment [2], the system named is NCI-H522. Kind of experiment: Antiproliferative activity against human NCI-H522 cells after 24 hrs by WST8 assay. The conditions noted are these: NCI-H522, 24 h. In kind it is functional, cell-based.
Experiment [3] has as its system NCI-H522. Put plainly: Antiproliferative activity against human NCI-H522 cells overexpressing human GLO1 at 10 to 30 uM after 72 hrs by WST8 assay. It is filed as functional, cell-based.
Experiment [4] concerns NCI-H522. Kind of experiment: Antiproliferative activity against human NCI-H522 cells after 48 hrs by WST8 assay. It is filed as functional, cell-based. The conditions noted are these: NCI-H522, 48 h.
Experiment [5] has as its system NCI-H522. Put plainly: Antiproliferative activity against human NCI-H522 cells after 72 hrs by WST8 assay. The conditions noted are these: NCI-H522, 72 h. It is filed as functional, cell-based.
Experiment [6] has as its target T1, Lactoylglutathione lyase (Homo sapiens, UniProt Q04760). Put plainly: Inhibition of human N-terminal His6-tagged GLO1 expressed in baculovirus infected sf21 cells assessed as reduction in S-D-lactoylglutathione formation at 100 uM measured for 5 mins in presence of glutathione by spectrophotometric method.
Target sequence in this assay (Q04760 2-184 limits assumed): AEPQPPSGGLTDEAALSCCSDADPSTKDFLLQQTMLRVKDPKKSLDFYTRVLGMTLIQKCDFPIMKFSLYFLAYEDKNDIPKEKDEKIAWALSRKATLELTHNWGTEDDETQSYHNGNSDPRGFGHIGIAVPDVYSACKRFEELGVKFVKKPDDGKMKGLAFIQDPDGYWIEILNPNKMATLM
The target in experiment [7] is T1, Lactoylglutathione lyase. Kind of experiment: Inhibition of human N-terminal His6-tagged GLO1 expressed in baculovirus infected sf21 cells assessed as reduction in S-D-lactoylglutathione formation measured for 5 mins in presence of glutathione by spectrophotometric method.
Target sequence in this assay (Q04760 whole entry): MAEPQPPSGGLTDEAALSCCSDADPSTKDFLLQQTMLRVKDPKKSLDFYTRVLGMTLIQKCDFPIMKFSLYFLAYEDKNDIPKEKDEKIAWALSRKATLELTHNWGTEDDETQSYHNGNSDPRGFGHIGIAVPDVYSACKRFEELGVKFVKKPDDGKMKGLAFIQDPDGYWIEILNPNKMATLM
In experiment [8] the target is T1, Lactoylglutathione lyase. Put plainly: Potency index, ratio of baicalein IC50 to compound IC50 for human N-terminal His6-tagged GLO1 expressed in baculovirus infected sf21 cells.
Target sequence in this assay (Q04760 2-184 limits assumed): as the sequence (Q04760 2-184 limits assumed) above

Take `Oc1cc(O)cc(/C=C/c2ccc(O)c(O)c2)c1` [PICEATANNOL]: the result in experiment [1] and in experiment [3] was inactive. Further, the EC50 (commonly the concentration giving half of the maximal effect) in experiment [2] was determined as 53 µM; in experiment [4], 23 µM; in experiment [5], 17 µM. Also, in experiment [6], the inhibition entry is “Active”. Besides, the IC50 (in general, the concentration needed to halve the response being measured) in experiment [7] amounted to 0.76 µM. In experiment [8], the Ratio IC50 stood at 14.

Take `COc1cc(/C=C/c2ccc(OC)c(OC)c2)cc(OC)c1`: the inhibition entry in experiment [6] was “Active”.
